# Earlier results in publication PMC6044621 (ACS Omega, 2016).
# System: Cbx7
# Details: ref 13c
substance,measurement,value
UNC3866,potency as Cbx7 inhibitor,97 nM
